Results reported in patent US10988524B2, “Modified relaxin B chain peptides and their therapeutic use” (priority 2018, dated 2021).
Non-standard residues stand in square brackets, D forms with d. Residues, ends and D or L forms follow the SMILES beside them. 1Nal = N[C@@H](Cc1cccc2ccccc12)C(=O)O; αMeS = C[C@](N)(CO)C(=O)O; Nle = CCCC[C@H](N)C(=O)O; Aib = CC(C)(N)C(=O)O

Molecular target: T1, RXFP1 (Homo sapiens, UniProt Q9HBX9)
T1 sequence (Q9HBX9 1-757): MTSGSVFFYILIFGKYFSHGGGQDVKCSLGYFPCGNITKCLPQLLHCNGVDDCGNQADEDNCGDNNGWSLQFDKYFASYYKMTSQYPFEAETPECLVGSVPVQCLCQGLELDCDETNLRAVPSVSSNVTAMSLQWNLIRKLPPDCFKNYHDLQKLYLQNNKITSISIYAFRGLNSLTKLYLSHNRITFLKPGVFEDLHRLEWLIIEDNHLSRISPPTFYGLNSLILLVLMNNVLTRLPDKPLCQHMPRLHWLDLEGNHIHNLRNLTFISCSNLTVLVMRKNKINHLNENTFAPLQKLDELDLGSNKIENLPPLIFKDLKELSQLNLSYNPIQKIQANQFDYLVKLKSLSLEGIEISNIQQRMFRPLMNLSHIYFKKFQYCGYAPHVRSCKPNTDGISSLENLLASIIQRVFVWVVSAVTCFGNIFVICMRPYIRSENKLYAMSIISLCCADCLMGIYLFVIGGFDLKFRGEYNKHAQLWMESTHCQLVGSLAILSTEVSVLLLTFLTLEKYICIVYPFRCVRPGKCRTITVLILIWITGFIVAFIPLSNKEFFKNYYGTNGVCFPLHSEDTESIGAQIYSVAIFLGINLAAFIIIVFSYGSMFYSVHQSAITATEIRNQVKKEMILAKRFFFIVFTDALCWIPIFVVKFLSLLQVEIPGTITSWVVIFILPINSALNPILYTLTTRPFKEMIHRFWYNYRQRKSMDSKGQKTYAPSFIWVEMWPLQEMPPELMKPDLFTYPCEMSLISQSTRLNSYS
Assay: OVCAR5 cAMP assay (RXFP1 agonist activity, HTRF)
Conditions: for Emax: OVCAR-5, read-out: cAMP assay in OVCAR 5 cells Emax, maximal intracellular cAMP relative to H2-relaxin in the same test occasion; for EC50: cAMP assay in OVCAR 5 cells EC50 (nM), OVCAR5 cells expressing endogenous RXFP1, cAMP by HTRF, 30 min at 37° C., 1 mM IBMX

Emax | EC50 | Structure (SMILES)
92% |  | CCCC[C@H](NC(=O)CNC(=O)[C@H](CCC(=O)O)NC(=O)C(C)(C)NC(=O)C(C)(C)NC(=O)[C@@H](NC(=O)[C@H](CCCCNC(C)=O)NC(=O)[C@H](C)NC(=O)[C@H](CCCNC(=N)N)NC(=O)[C@@H](NC(=O)[C@H](CCCCN)NC(=O)[C@H](CCC(=O)O)NC(=O)[C@H](CCCNC(=N)N)NC(=O)CNC(=O)[C@H](CCC(=O)O)NC(=O)[C@H](CC(C)C)NC(C)=O)C(C)C)[C@@H](C)CC)C(=O)N[C@@H](CO)C(=O)N[C@H](C(=O)N[C@@H](Cc1c[nH]c2ccccc12)C(=O)N[C@@H](CO)C(=O)NC(C)(C)C(=O)N[C@@H](CCCNC(=N)N)C(=O)N[C@@H](CCCCN)C(=O)N[C@@H](CCCCN)C(N)=O)[C@@H](C)O [compound 24] (Ac-LEGREKVRAK(Ac)I[Aib][Aib]EG[Nle]STWS[Aib]RKK-NH2)
100% | ≤ 5 nM | CCCC[C@H](NC(=O)CNC(=O)[C@H](CCC(=O)O)NC(=O)C(C)(C)NC(=O)C(C)(C)NC(=O)[C@@H](NC(=O)[C@H](CCCCNC(C)=O)NC(=O)[C@H](C)NC(=O)[C@H](CCCNC(=N)N)NC(=O)[C@@H](NC(=O)[C@H](CCCCN)NC(=O)[C@H](CCC(=O)O)NC(=O)[C@H](CCCNC(=N)N)NC(=O)CNC(=O)[C@H](CCC(=O)O)NC(=O)[C@H](CC(C)C)NC(C)=O)C(C)C)[C@@H](C)CC)C(=O)N[C@@H](CO)C(=O)N[C@H](C(=O)N[C@@H](Cc1c[nH]c2ccccc12)C(=O)N[C@@H](CO)C(=O)N[C@@H](CCCCNC(C)=O)C(=O)N[C@@H](CCCNC(=N)N)C(=O)N[C@@H](CCCCN)C(=O)N[C@@H](CCCCN)C(N)=O)[C@@H](C)O [compound 25] (Ac-LEGREKVRAK(Ac)I[Aib][Aib]EG[Nle]STWSK(Ac)RKK-NH2)
95% | 9.5 nM | CCCC[C@H](NC(=O)CNC(=O)[C@H](CCC(=O)O)NC(=O)C(C)(C)NC(=O)C(C)(C)NC(=O)[C@@H](NC(=O)[C@H](CCCCNC(C)=O)NC(=O)[C@H](C)NC(=O)[C@H](CCCNC(=N)N)NC(=O)[C@@H](NC(=O)[C@H](CCCCN)NC(=O)[C@H](CCC(=O)O)NC(=O)[C@H](CCCNC(=N)N)NC(=O)CNC(=O)[C@H](CCC(=O)O)NC(=O)[C@H](CC(C)C)NC(C)=O)C(C)C)[C@@H](C)CC)C(=O)N[C@@H](CO)C(=O)N[C@H](C(=O)N[C@@H](Cc1c[nH]c2ccccc12)C(=O)N[C@@H](CO)C(=O)NC(C)(C)C(=O)N[C@@H](CCCNC(=N)N)C(=O)N[C@@H](CCCCNC(C)=O)C(=O)N[C@@H](CCCCN)C(N)=O)[C@@H](C)O [compound 27] (Ac-LEGREKVRAK(Ac)I[Aib][Aib]EG[Nle]STWS[Aib]RK(Ac)K-NH2)
92% |  | CCCC[C@H](NC(=O)CNC(=O)[C@H](CCC(=O)O)NC(=O)C(C)(C)NC(=O)C(C)(C)NC(=O)[C@@H](NC(=O)[C@H](CCCCNC(C)=O)NC(=O)[C@H](C)NC(=O)[C@H](CCCNC(=N)N)NC(=O)[C@@H](NC(=O)[C@H](CCCCN)NC(=O)[C@H](CCC(=O)O)NC(=O)[C@H](CCCNC(=N)N)NC(=O)CNC(=O)[C@H](CCC(=O)O)NC(=O)[C@H](CC(C)C)NC(C)=O)C(C)C)[C@@H](C)CC)C(=O)N[C@@H](CO)C(=O)N[C@H](C(=O)N[C@@H](Cc1c[nH]c2ccccc12)C(=O)N[C@@H](CO)C(=O)NC(C)(C)C(=O)N[C@@H](CCCNC(=N)N)C(=O)N[C@@H](CCCCNC(C)=O)C(=O)N[C@@H](CCCCNC(C)=O)C(N)=O)[C@@H](C)O [compound 28] (Ac-LEGREKVRAK(Ac)I[Aib][Aib]EG[Nle]STWS[Aib]RK(Ac)K(Ac)-NH2)
98% |  | CCCC[C@H](NC(=O)CNC(=O)[C@H](CCC(=O)O)NC(=O)C(C)(C)NC(=O)C(C)(C)NC(=O)[C@@H](NC(=O)[C@H](CCCCNC(C)=O)NC(=O)[C@H](C)NC(=O)[C@H](CCCNC(=N)N)NC(=O)[C@@H](NC(=O)[C@H](CCCCN)NC(=O)[C@H](CCC(=O)O)NC(=O)[C@H](CCCNC(=N)N)NC(=O)CNC(=O)[C@H](CCC(=O)O)NC(=O)[C@H](CC(C)C)NC(C)=O)C(C)C)[C@@H](C)CC)C(=O)N[C@@H](CO)C(=O)N[C@H](C(=O)N[C@@H](Cc1cccc2ccccc12)C(=O)N[C@@H](CO)C(=O)NC(C)(C)C(=O)N[C@@H](CCCNC(=N)N)C(=O)N[C@@H](CCCCN)C(=O)N[C@@H](CCCCNC(C)=O)C(N)=O)[C@@H](C)O [compound 29] (Ac-LEGREKVRAK(Ac)I[Aib][Aib]EG[Nle]ST[1Nal]S[Aib]RKK(Ac)-NH2)
93% |  | CCCC[C@H](NC(=O)CNC(=O)[C@H](CCC(=O)O)NC(=O)C(C)(C)NC(=O)C(C)(C)NC(=O)[C@@H](NC(=O)[C@H](CCCCNC(C)=O)NC(=O)[C@H](C)NC(=O)[C@H](CCCNC(=N)N)NC(=O)[C@@H](NC(=O)[C@H](CCCCN)NC(=O)[C@H](CCC(=O)O)NC(=O)[C@H](CCCNC(=N)N)NC(=O)CNC(=O)[C@H](CCC(=O)O)NC(=O)[C@H](CC(C)C)NC(C)=O)C(C)C)[C@@H](C)CC)C(=O)N[C@@H](CO)C(=O)N[C@H](C(=O)N[C@@H](Cc1c[nH]c2ccccc12)C(=O)N[C@@](C)(CO)C(=O)NC(C)(C)C(=O)N[C@@H](CCCNC(=N)N)C(=O)N[C@@H](CCCCN)C(=O)N[C@@H](CCCCNC(C)=O)C(N)=O)[C@@H](C)O [compound 30] (Ac-LEGREKVRAK(Ac)I[Aib][Aib]EG[Nle]STW[αMeS][Aib]RKK(Ac)-NH2)
96% |  | CCCC[C@H](NC(=O)CNC(=O)[C@H](CCC(=O)O)NC(=O)C(C)(C)NC(=O)C(C)(C)NC(=O)[C@@H](NC(=O)[C@H](CCCCNC(C)=O)NC(=O)[C@H](C)NC(=O)[C@H](CCCNC(=N)N)NC(=O)[C@@H](NC(=O)[C@H](CCCCN)NC(=O)[C@H](CCC(=O)O)NC(=O)[C@H](CCCNC(=N)N)NC(=O)CNC(=O)[C@H](CCC(=O)O)NC(=O)[C@H](CC(C)C)NC(C)=O)C(C)C)[C@@H](C)CC)C(=O)N[C@@H](CO)C(=O)N[C@H](C(=O)N[C@@H](Cc1c[nH]c2ccccc12)C(=O)N[C@@H](CO)C(=O)NC(C)(C)C(=O)N[C@@H](CCCNC(=N)N)C(=O)N[C@@H](CCCCN)C(=O)N[C@@H](CCC(N)=O)C(N)=O)[C@@H](C)O [compound 31] (Ac-LEGREKVRAK(Ac)I[Aib][Aib]EG[Nle]STWS[Aib]RKQ-NH2)
95% |  | CCCC[C@H](NC(=O)CNC(=O)[C@H](CCC(=O)O)NC(=O)C(C)(C)NC(=O)C(C)(C)NC(=O)[C@@H](NC(=O)[C@H](CCCCNC(C)=O)NC(=O)[C@H](C)NC(=O)[C@H](CCCNC(=N)N)NC(=O)[C@@H](NC(=O)[C@H](CCCCN)NC(=O)[C@H](CCC(=O)O)NC(=O)[C@H](CCCNC(=N)N)NC(=O)CNC(=O)[C@H](CCC(=O)O)NC(=O)[C@H](CC(C)C)NC(C)=O)C(C)C)[C@@H](C)CC)C(=O)N[C@@H](CO)C(=O)N[C@H](C(=O)N[C@@H](Cc1c[nH]c2ccccc12)C(=O)N[C@@H](CO)C(=O)NC(C)(C)C(=O)N[C@@H](CCCNC(=N)N)C(=O)N[C@@H](CCCCN)C(=O)N[C@@H](CC(C)C)C(N)=O)[C@@H](C)O [compound 32] (Ac-LEGREKVRAK(Ac)I[Aib][Aib]EG[Nle]STWS[Aib]RKL-NH2)
105% |  | CCCC[C@H](NC(=O)CNC(=O)[C@H](CCC(=O)O)NC(=O)C(C)(C)NC(=O)C(C)(C)NC(=O)[C@@H](NC(=O)[C@H](CCC(N)=O)NC(=O)[C@H](CCCCNC(C)=O)NC(=O)[C@H](CCCNC(=N)N)NC(=O)[C@@H](NC(=O)[C@H](CCCCN)NC(=O)[C@H](CCC(=O)O)NC(=O)[C@H](CCCNC(=N)N)NC(=O)CNC(=O)[C@H](CCC(=O)O)NC(=O)[C@H](CC(C)C)NC(C)=O)C(C)C)[C@@H](C)CC)C(=O)N[C@@H](CO)C(=O)N[C@H](C(=O)N[C@@H](Cc1c[nH]c2ccccc12)C(=O)N[C@@H](CO)C(=O)NC(C)(C)C(=O)N[C@@H](CCCNC(=N)N)C(=O)N[C@@H](CCCCN)C(=O)N[C@@H](CCCCN)C(N)=O)[C@@H](C)O [compound 33] (Ac-LEGREKVRK(Ac)QI[Aib][Aib]EG[Nle]STWS[Aib]RKK-NH2)
96% |  | CCCC[C@H](NC(=O)CNC(=O)[C@H](CCC(=O)O)NC(=O)C(C)(C)NC(=O)C(C)(C)NC(=O)[C@@H](NC(=O)C(C)(C)NC(=O)[C@H](CCCCNC(C)=O)NC(=O)[C@H](CCCNC(=N)N)NC(=O)[C@@H](NC(=O)[C@H](CCCCN)NC(=O)[C@H](CCC(=O)O)NC(=O)[C@H](CCCNC(=N)N)NC(=O)CNC(=O)[C@H](CCC(=O)O)NC(=O)[C@H](CC(C)C)NC(C)=O)C(C)C)[C@@H](C)CC)C(=O)N[C@@H](CO)C(=O)N[C@H](C(=O)N[C@@H](Cc1c[nH]c2ccccc12)C(=O)N[C@@H](CO)C(=O)NC(C)(C)C(=O)N[C@@H](CCCNC(=N)N)C(=O)N[C@@H](CCCCN)C(=O)N[C@@H](CCCCN)C(N)=O)[C@@H](C)O [compound 34] (Ac-LEGREKVRK(Ac)[Aib]I[Aib][Aib]EG[Nle]STWS[Aib]RKK-NH2)
